“Also recorded” adds a separate entry of the source. Like-named read-outs stand apart in the source and are kept apart here.
Columns and labels:
ERBB2/3 = ERBB2/3 (Homo sapiens, UniProt P04626+P21860); test: ERBBprofiler barcoded split TEV assay, ERBB2/3
ERBB4 [1] = molecular target: ERBB4 (Homo sapiens, UniProt Q15303); test: ERBBprofiler barcoded split TEV assay, ERBB4; conditions: ERBB4 UAS (split TEV) IC50, PC12 cells; constant EGF 30 ng/mL, EGFld 10 ng/mL, serotonin 1 μM; 6 h; barcode readout; relative IC50
ERBB4 (Homo sapiens, UniProt Q15303), sequence (Q15303 26-1308): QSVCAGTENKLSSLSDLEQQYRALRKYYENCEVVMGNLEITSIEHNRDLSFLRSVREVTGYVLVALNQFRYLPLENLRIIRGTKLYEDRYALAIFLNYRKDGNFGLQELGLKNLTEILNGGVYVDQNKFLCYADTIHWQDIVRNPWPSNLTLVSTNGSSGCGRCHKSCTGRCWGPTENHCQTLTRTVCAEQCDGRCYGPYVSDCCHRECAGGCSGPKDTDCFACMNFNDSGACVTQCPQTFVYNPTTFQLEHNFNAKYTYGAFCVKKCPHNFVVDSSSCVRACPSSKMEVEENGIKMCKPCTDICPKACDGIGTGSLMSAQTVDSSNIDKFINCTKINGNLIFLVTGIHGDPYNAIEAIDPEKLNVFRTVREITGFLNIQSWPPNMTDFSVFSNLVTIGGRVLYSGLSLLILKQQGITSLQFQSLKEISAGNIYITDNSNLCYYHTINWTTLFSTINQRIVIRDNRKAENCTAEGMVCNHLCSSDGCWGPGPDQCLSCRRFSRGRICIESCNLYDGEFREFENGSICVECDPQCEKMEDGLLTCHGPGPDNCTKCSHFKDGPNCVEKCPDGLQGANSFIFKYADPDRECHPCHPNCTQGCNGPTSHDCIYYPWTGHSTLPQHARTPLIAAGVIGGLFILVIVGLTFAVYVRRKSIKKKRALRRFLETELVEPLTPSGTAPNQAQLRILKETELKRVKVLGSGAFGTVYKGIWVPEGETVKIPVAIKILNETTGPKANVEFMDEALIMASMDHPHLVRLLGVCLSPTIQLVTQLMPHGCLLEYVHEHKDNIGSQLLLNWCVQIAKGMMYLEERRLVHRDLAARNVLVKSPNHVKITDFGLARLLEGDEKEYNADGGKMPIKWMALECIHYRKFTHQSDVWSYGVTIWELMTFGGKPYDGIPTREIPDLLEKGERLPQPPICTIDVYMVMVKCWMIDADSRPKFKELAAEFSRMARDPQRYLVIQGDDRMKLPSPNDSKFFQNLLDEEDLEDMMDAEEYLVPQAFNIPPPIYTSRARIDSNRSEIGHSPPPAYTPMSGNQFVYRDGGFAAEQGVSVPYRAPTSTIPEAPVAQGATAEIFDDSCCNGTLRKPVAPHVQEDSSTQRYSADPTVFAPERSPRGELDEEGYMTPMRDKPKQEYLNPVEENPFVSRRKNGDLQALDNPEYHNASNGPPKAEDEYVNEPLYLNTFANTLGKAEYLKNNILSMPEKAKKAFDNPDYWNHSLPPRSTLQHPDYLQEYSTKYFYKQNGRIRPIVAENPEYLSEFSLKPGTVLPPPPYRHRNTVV

EGFR EGR1p = test: ERBBprofiler barcoded EGR1p pathway sensor, EGFR co-transfected; conditions: Rattus norvegicus, PC-12, 6 h, read-out: EGFR EGR1p IC50
ERBB4 [2] = test system: ERBB4; design: method as in Nam et al., 2011; conditions: tyrosine kinase assay kit (Panvera); ref Nam et al., 2011; read-out: IC50_Literature, ERBB4; cited from earlier work
ERBB4 NFAT = test: ERBBprofiler barcoded NFAT pathway sensor, ERBB4 co-transfected; format: cell-based, Rattus norvegicus; conditions: PC12 cells; constant EGF 30 ng/mL, EGFld 10 ng/mL, serotonin 1 μM; 6 h; barcode readout; relative IC50
HTR2A EGR1p = test: ERBBprofiler barcoded EGR1p pathway sensor, HTR2A co-transfected; conditions: Rattus norvegicus, PC-12, 6 h, read-out: HTR2A EGR1p IC50
cAMP = test: GloSensor cAMP assay in PC12 cells; format: cell-based, Rattus norvegicus
Protocol: The GloSensor cAMP assay was conducted with the same parameters (50,000 PC12 cells per 96-well) as described above for the firefly luciferase assay, with however, three differences. Specifically, (1) 30 ng/well of the pGloSensor-22F plasmid (Promega, E2301) was used for transfection, and (2) on DIV3, cells were equilibrated in assay medium containing a 2% v/v dilution of D-luciferin (Synchem, bc219) for 2 h at 37°C before (3) the treatment of compounds for 15 min and lysis in 1x passive lysis buffer (Promega) and luciferase activity measurement.

calcium = test: Fluo-4 AM calcium assay in PC12 cells; format: cell-based, Rattus norvegicus; conditions: stimulation mix
Protocol: On DIV2, cells were pre-equilibrated in 10 μM Fluo-4 a.m. (Thermo Fisher Scientific, F14201) away from light for 1 h at 37°C. Next, cells were incubated in the indicator-free starvation medium to allow de-esterification for 20 min away from light at 37°C. Background fluorescence was then measured using the BMG POLARstar Optima Microplate Reader prior to adding the treatments and continuously measuring the fluorescence for the next 30 min. Fluorescence was measured using the bottom optics.

HTR2A NFAT = test: ERBBprofiler barcoded NFAT pathway sensor, HTR2A co-transfected; conditions: Rattus norvegicus, PC-12, 6 h, read-out: HTR2A NFAT IC50
ERBB4 EGR1p = test: ERBBprofiler barcoded EGR1p pathway sensor, ERBB4 co-transfected; conditions: Rattus norvegicus, PC-12, 6 h, read-out: ERBB4 EGR1p IC50
NCI-H1975 cells = test system: NCI-H1975 cells; design: method as in Dong et al., 2019; conditions: growth of NCI-H1975 cells; ref Dong et al., 2019; read-out: IC50_Literature, EGFR; cited from earlier work
ERBB2/3 EGR1p = test: ERBBprofiler barcoded EGR1p pathway sensor, ERBB2/3 co-transfected; conditions: Rattus norvegicus, PC-12, 6 h, read-out: ERBB2/3 EGR1p IC50
HTR2A = HTR2A (Homo sapiens, UniProt P28223); test: ERBBprofiler barcoded split TEV assay, HTR2A
HTR2A, sequence (P28223 whole entry): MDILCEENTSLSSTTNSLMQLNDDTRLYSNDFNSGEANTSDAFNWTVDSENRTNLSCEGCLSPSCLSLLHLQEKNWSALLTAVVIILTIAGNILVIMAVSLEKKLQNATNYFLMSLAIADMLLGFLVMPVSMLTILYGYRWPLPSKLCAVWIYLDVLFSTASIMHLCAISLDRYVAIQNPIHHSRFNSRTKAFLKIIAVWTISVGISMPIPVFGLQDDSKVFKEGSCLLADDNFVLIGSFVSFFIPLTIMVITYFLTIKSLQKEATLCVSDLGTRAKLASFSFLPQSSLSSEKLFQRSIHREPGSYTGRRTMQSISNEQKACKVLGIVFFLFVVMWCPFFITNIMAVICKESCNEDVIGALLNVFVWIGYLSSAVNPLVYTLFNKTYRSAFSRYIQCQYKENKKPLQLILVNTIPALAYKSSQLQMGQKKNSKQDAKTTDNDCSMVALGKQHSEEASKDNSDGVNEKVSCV

[3] = test system: ERBB receptors, HTR2A, and downstream signaling pathways; test: ERBBprofiler multiplexed barcoded assay, overall statements across all receptor batches and sensors; conditions: for CRE sensor response at high compound concentration (barcoded): 10 μM compound, PC12 cells, stimulation mix
CRE sensor = CRE sensor only luciferase assay in PC12 cells; format: cell-based, Rattus norvegicus
Protocol: 50,000 PC12 cells were seeded per 96-well onto poly-L-lysin (PLL)-coated plates and transfected the following day (day in vitro 1, DIV1) with assay plasmids using Lipofectamine 3000 (Thermo Fisher Scientific). […] For pathway assays, the receptor plasmids (15 ng/well) and pathway reporter plasmids (15 ng/well) pEGR1p-luc2 for monitoring MAPK signaling, pCRE-CMVmin-luc2 for monitoring cAMP/Ca^2+ signaling, or p6xNFAT-CMVmin-luc2 for Ca^2+ signaling were used. Transient transfections were conducted according to the manufacturer’s instructions. On DIV2, cells were starved in medium containing 1% FCS for 16 h. […] In the case of antagonist assays, compounds were added at increasing doses together with the stimulus. Cells were lysed in 1x passive lysis buffer (Promega) and subjected to a firefly luciferase assay using a self-made substrate for firefly luciferase.[100] Luciferase activity was analyzed in a Mithras LB 940 Multimode Microplate Reader (Berthold Technologies). All assays were run in 96-well plates using six replicates per condition.

EGFR NFAT = test: ERBBprofiler barcoded NFAT pathway sensor, EGFR co-transfected; format: cell-based, Rattus norvegicus
[4] = test system: Calu-3 and NCI-H1781 cells; design: method as in Dong et al., 2019; conditions: growth of Calu-3 and NCI-H1781 cells; ref Dong et al., 2019; read-out: IC50_Literature, ERBB2; cited from earlier work
ERBB2 = test system: ERBB2; design: method as in Hasako et al., 2018; conditions: biochemical kinase activity assay by Carna Biosciences; ref Hasako et al., 2018; read-out: IC50_Literature, ERBB2; cited from earlier work
ERBB2/3 NFAT = test: ERBBprofiler barcoded NFAT pathway sensor, ERBB2/3 co-transfected; format: cell-based, Rattus norvegicus; conditions: PC12 cells; constant EGF 30 ng/mL, EGFld 10 ng/mL, serotonin 1 μM; 6 h; barcode readout; relative IC50
EGFR [5] = test system: EGFR; design: method as in Hasako et al., 2018; conditions: phospho-WB in NIH/3T3 cell lines; ref Hasako et al., 2018; read-out: IC50_Literature, EGFR; cited from earlier work
EGFR [6] = molecular target: EGFR (Homo sapiens, UniProt P00533); test: ERBBprofiler barcoded split TEV assay, EGFR
ERBB4 [7] = test system: ERBB4; design: method as in Hasako et al., 2018; conditions: biochemical kinase activity assay by Carna Biosciences; ref Hasako et al., 2018; read-out: IC50_Literature, ERBB4; cited from earlier work

ERBB2/3, sequence (P04626 23-1255): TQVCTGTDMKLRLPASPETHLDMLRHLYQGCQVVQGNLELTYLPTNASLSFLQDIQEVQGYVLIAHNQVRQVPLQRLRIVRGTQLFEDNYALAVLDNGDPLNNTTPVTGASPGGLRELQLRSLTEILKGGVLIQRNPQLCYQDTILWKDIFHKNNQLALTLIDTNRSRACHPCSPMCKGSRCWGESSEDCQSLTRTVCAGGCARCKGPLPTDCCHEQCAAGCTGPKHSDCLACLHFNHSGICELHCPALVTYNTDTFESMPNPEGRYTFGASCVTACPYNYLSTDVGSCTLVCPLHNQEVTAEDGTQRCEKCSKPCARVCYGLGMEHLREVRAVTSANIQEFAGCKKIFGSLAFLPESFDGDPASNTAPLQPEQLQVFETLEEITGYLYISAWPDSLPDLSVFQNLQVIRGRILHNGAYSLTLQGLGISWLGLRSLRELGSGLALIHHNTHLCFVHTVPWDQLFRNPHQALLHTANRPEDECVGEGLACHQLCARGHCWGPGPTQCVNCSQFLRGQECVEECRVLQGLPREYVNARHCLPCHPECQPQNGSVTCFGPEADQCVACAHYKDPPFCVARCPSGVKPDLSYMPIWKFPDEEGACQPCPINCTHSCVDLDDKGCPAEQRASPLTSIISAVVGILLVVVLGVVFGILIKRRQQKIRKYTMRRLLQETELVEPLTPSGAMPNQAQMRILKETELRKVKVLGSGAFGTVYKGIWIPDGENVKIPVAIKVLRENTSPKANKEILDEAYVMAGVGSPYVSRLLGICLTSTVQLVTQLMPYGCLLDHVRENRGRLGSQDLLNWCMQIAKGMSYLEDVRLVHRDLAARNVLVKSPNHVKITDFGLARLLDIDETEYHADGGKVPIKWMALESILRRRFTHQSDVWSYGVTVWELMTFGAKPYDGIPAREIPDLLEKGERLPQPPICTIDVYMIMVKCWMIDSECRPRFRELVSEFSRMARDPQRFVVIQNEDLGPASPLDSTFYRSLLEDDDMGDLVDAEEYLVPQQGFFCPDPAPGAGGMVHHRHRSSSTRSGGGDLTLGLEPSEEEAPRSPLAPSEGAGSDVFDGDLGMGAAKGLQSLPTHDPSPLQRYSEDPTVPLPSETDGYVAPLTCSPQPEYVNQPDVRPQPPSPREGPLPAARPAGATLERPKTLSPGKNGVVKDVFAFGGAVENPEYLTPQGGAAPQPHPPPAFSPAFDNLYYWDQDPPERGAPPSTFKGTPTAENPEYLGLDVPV
ERBB2/3, sequence (P21860 20-1342): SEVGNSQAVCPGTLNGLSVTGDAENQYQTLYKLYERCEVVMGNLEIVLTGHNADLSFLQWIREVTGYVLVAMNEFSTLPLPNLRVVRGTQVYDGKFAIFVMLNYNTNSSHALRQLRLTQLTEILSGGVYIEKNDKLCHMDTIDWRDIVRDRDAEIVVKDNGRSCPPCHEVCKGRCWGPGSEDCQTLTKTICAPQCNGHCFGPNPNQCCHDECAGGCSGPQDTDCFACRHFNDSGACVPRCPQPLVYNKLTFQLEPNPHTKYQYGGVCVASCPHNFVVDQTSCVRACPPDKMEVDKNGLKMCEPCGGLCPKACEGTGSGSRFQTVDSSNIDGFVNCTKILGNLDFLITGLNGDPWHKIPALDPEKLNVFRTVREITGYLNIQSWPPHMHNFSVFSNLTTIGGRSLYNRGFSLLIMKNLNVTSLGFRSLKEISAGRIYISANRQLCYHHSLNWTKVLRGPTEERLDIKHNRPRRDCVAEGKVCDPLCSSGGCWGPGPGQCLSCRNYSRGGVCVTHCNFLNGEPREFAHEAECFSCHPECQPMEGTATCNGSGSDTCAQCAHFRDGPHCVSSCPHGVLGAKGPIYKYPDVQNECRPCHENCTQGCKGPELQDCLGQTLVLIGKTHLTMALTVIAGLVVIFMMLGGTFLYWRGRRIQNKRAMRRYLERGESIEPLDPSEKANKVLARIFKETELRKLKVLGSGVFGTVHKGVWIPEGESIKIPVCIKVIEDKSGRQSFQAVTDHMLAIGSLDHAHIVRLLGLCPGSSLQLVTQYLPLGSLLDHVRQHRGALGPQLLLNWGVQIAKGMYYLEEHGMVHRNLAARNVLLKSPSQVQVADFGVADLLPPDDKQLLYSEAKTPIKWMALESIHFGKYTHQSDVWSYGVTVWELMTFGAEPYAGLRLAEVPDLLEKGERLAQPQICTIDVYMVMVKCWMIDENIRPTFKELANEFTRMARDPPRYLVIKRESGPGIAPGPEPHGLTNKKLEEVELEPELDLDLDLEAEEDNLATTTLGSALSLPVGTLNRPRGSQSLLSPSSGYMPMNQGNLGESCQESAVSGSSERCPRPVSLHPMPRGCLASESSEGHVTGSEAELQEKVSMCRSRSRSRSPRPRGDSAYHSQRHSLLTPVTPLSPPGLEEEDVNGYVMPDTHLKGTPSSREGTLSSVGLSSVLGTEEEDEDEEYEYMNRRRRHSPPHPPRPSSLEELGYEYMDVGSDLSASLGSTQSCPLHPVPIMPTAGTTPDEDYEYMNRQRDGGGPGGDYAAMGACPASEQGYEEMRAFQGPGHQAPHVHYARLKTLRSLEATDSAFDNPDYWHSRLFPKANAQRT

SMILES	IC50 (ERBB2/3)	IC50 (ERBB4 [1])	IC50 (EGFR EGR1p)	ERBB4 NFAT IC50 (ERBB4 NFAT)	IC50 (HTR2A EGR1p)	IC50 (HTR2A NFAT)	IC50 (ERBB4 EGR1p)	IC50 (ERBB2/3 EGR1p)	IC50 (HTR2A)	CRE sensor response at high compound concentration (barcoded) [3]	further results
C=CC(=O)N1CCC(Oc2cc3c(Nc4ccc(Cl)c(Cl)c4F)ncnc3cc2OC)CC1 [Poziotinib, Poziotinib (HM781-36B)]	2.63 nM	3.11 nM	0.89 nM	no effect (EGFR, ERBB2/3, ERBB4) - 0.016 µM (HTR2A)	1.14 nM	16 nM	0.87 nM	0.79 nM	4.56 nM	upregulation of the CRE sensor; also recorded: upregulated CRE sensor response	IC50 (ERBB4 [2]): 23.5 nM; effect on cAMP levels (GloSensor) (cAMP): increase of cAMP; EC50 (cAMP; Rattus norvegicus, PC-12, 0.25 h, constant stimulation mix, 15 min, cAMP increase): 2910 nM; compound concentration resulting in elevated cAMP (GloSensor) (cAMP; stimulation mix): ≥ 3 µM; effect on calcium levels (Fluo-4 AM) (calcium): but not calcium levels; IC50 (NCI-H1975 cells): 1.7 to 8.78 nM; effect on CRE sensor activity (luciferase), in words (CRE sensor; PC12 cells, CRE sensor only, stimulation mix): CRE sensor activation at high compound concentrations; EC50 (CRE sensor; Rattus norvegicus, PC-12): 1640 nM; EGFR NFAT IC50 (EGFR NFAT; PC12 cells, constant EGF 30 ng/mL, EGFld 10 ng/mL, serotonin 1 μM, 6 h, barcode readout, relative IC50): no effect (EGFR, ERBB2/3, ERBB4) - 0.016 µM (HTR2A); IC50 [4]: 2.5 to 6.2 nM
C=CC(=O)N[C@H]1C=C(C)c2c(-c3cnc4ccccc4c3)c3c(N)ncnc3n2C1 [TAS6417, TAS6417 (Zipalertinib)]	206 nM	91 nM	95 nM	no effect (EGFR, ERBB2/3, ERBB4) - 0.848 µM (HTR2A, small effect)	193 nM	848 nM	55 nM	267 nM	444 nM	upregulated CRE sensor response	IC50 (ERBB2): 390 nM; ERBB2/3 NFAT IC50 (ERBB2/3 NFAT): no effect (EGFR, ERBB2/3, ERBB4) - 0.848 µM (HTR2A, small effect); IC50 (EGFR [5]): 368 nM; IC50_ERBBpro, cAMP/Ca2+ (CRE sensor) ([3]; ERBBprofiler, no receptor named in the cell): no effect; EGFR NFAT IC50 (EGFR NFAT): no effect (EGFR, ERBB2/3, ERBB4) - 0.848 µM (HTR2A, small effect); IC50 (EGFR [6]): 92 nM; IC50 (ERBB4 [7]): 4 nM
